Patent publication US20220175795A1, “USE OF FULVESTRANT FOR THE THERAPEUTIC CARE OF CENTRAL CORE DISEASE” (UNIVERSITÉ GRENOBLE ALPES, priority 2019, published 2022)
“Also recorded” adds a separate entry of the source.

Legend:
[1] = tested on: recombinant RyR1 cells (RyR1-Rec murine myotubes); conditions: 72 h, 0.1 µM
Method: The satellite cells were isolated from the skeletal muscles of the lower limbs of the neonate mice RyR1^Ctrl according to the procedure described in Marty et al, 2000.
The cells were seeded in 96 well plates (75,000 cells/well) previously coated with laminin. The cells were first cultured in the proliferation medium composed of Ham's F-10 Nutrient Mix (Life Technologies), 20% fetal calf serum (Life Technologies), 2% Ultroser G (PALL) and 2% Penicillin-Streptomycin (Life Technologies).
In order to induce floxed RyR1 gene recombination, the cells thus have been transduced 12 hours after seeding with adenoviruses allowing the expression of Cre recombinase, AdV-Cre (Utah University), to a multiplicity of infections (multiplicity of infection, or MOI) of 64. […]
The films were analyzed by the Fiji (Schindelin et al., 2012) and Prim (GraphPad) softwares.
For murine cells, the fluorescence measurements were performed on regions of interest each corresponding to a myotube, with several tens of myotubes measured for each repetition of the experiment.
The intensity of the calcium release was evaluated in response to a stimulation by KCl 140 mM (mimicking a depolarization at ˜0 mV). […]

human control cells CTRL = assay: Calcium imaging (Fluo-4, KCl 140 mM stimulation) on human control muscle cells; assay type: cell-based; conditions: 7 days in differentiation medium
Method: The CTRL cells are immortalized human cells from a biopsy of a healthy subject having no calcium release abnormality.
(§1) The medium has been renewed 4 days after placing in the differentiation medium.
(§2) For human cells, the shape of the cells not allowing them to be distinguished individually in an accurate manner, the measurements were made on a single region of interest per well corresponding to the total surface covered by the myotubes. 4 to 6 wells were measured for each repetition of the experiment.
(§3) Fulvestrant was tested on human muscle cells having or not a calcium release defect (human cells CTRL or MELA), by incubation of 7 days in differentiation medium.

[2] = tested on: immortalized human MELA cells; assay: Calcium imaging (Fluo-4, KCl 140 mM stimulation) on cells of a central core disease patient; assay type: cell-based; conditions: 7 days in differentiation medium, not statistically significant
Description: The MELA cells are immortalized human cells derived from a biopsy of a patient suffering from central core disease, including in particular a quantitative defect of RyR1 and a calcium release defect (Rendu et al., 2013). These cells were immortalised by the team of Vincent Mouly (Institute of Myology, Paris).
as §1, §2, §3

[3] = tested on: RyR1^Rec mice (model of central core disease); assay: Animal grip test (gripping time on inverted grid) in inducible RyR1 KO mice; assay type: in vivo
Method: For this study, an inducible and non-lethal model of KO mice for RyR1 developed in the laboratory was used. In these mice, exons 9 to 11 of the RYR1 gene are flanked by LoxP sites on both alleles (RYR1 fl/fl).
KO was induced by intraperitoneal injections of tamoxifen (Sigma) eight weeks after birth, at 1 mg/day for five days. It is important to note that all animals have received these injections, whether they have the HSA-Cre allele or not.
Exclusively in animals having the HSA-Cre allele, tamoxifen (TAM) causes the translocation of the Cre recombinase to the nucleus, thus allowing the recombination of the LoxP sites and the deletion of exons 9-11 from the RYR1 gene (FIG. 1). In order to improve the understanding, the mice in which the recombination cannot be made will be referred to as the RyR1^Ctrl mice in the following document. The recombinant mice after intraperitoneal administration of TAM will be referred to as RyR1^Rec mice.
For the treatment of animals, fulvestrant was prepared from a commercial solution of Faslodex 250 mg (AstraZeneca). This solution was diluted in physiological serum and 0.27 mg of fulvestrant was injected to each mouse (weight of 20 g) in 50 μl volume. The injections were carried out intramuscularly in the quadriceps once per week.
In order to evaluate the muscular strength of the animals, the mice were placed on a grid which was then turned upside down. The duration during which the mice remain gripped at the grid has been timed to a limit of 300 seconds. This measurement was carried out in a weekly manner over the entire population of mice of the study.
The strength of the animals is followed by a grip test (gripping test) once a week, just before the injections.

C[C@]12CC[C@@H]3c4ccc(O)cc4C[C@@H](CCCCCCCCC[S+]([O-])CCCC(F)(F)C(F)(F)F)[C@H]3[C@@H]1CC[C@@H]2O (some centres unmarked) [fulvestrant]
increase of the calcium release peak vs untreated cells [1]: 28% | magnitude of the calcium release peak (Fluo-4 fluorescence) [1]: 0.40+/−0.04 | effect on calcium release (human control cells CTRL; fulvestrant 100 nM): has no effect; also recorded: does not have an effect | effect on calcium release (human control cells CTRL; fulvestrant 250 nM): has no effect; also recorded: does not have any effect | effect on calcium release ([2]; fulvestrant 100 nM): tends to increase calcium release; also recorded: tendency to improve the calcium release | effect on calcium release ([2]; fulvestrant 250 nM): tends to increase the release of calcium | strength (gripping time) vs untreated mice ([3]; female RyR1^Rec mice, intramuscular injection once a week, grip test weekly (limit 300 seconds)): very sharp improvement; also recorded: significantly improved | strength over the entire duration of the treatment ([3]; mice with induced central core disease, 75 days of treatment): did not lose strength
